Data: patent US20240150338A1, “COMPOUNDS AND USE THEREOF FOR TREATMENT OF NEURODEGENERATIVE, DEGENERATIVE AND METABOLIC DISORDERS” (University of Florida Research Foundation, Incorporated, priority 2021, published 2024)

Tested on: PK1 neuroblastoma cells exposed to TPrP
Assay: cells
Type: cell-based
Settings: Neuroblastoma cell, 96 h, read-out: TPrP EC50

Row | Compound | EC50 [nM]
1 | NS(=O)(=O)c1ccc(Nc2nc(-c3ccncc3)cs2)cc1 [SR-186, 4-((4-(pyridin-4-yl)thiazol-2-yl)amino)benzenesulfonamide] | 70
2 | NS(=O)(=O)c1ccc(Nc2nc(-c3ccc(S(=O)(=O)N4CCOCC4)cc3)c(CO)s2)cc1 [SR-34764, 4-((5-(Hydroxymethyl)-4-(4-(morpholinosulfonyl)phenyl)thiazol-2-yl)amino)benzenesulfonamide] | 60
3 | NS(=O)(=O)c1ccc(Nc2nc(-c3ccc(S(=O)(=O)N4CCOCC4)cc3)cs2)cc1 [SR-34765, 4-((4-(4-(Morpholinosulfonyl)phenyl)thiazol-2-yl)amino)benzenesulfonamide] | 70
4 | NS(=O)(=O)c1ccc(Nc2nc(-c3ccc(S(=O)(=O)Nc4ccccc4)cc3)cs2)cc1 [SR-34767, N-Phenyl-4-(2-((4-sulfamoylphenyl)amino)thiazol-4-yl)benzenesulfonamide] | > 500
5 | CCN(CC)S(=O)(=O)c1ccc(-c2csc(Nc3ccc(S(N)(=O)=O)cc3)n2)cc1 [SR-34768, N,N-diethyl-4-(2-((4-sulfamoylphenyl)amino)thiazol-4-yl)benzenesulfonamide] | 150
6 | CN(C)S(=O)(=O)c1ccc(-c2csc(Nc3ccc(S(N)(=O)=O)cc3)n2)cc1 [SR-34769, N,N-dimethyl-4-(2-((4-sulfamoylphenyl)amino)thiazol-4-yl)benzenesulfonamide] | 30
7 | CNS(=O)(=O)c1ccc(-c2csc(Nc3ccc(S(N)(=O)=O)cc3)n2)cc1 [SR-34771, N-methyl-4-(2-((4-sulfamoylphenyl)amino)thiazol-4-yl)benzenesulfonamide] | 25
8 | NS(=O)(=O)c1ccc(Nc2nc(-c3ccc(S(=O)(=O)N4CCCCC4)cc3)c(CO)s2)cc1 [SR-34772, 4-((5-(Hydroxymethyl)-4-(4-(piperidin-1-ylsulfonyl)phenyl)thiazol-2-yl)amino)benzenesulfonamide] | 400
9 | CCN(CC)S(=O)(=O)c1ccc(-c2nc(Nc3ccc(S(N)(=O)=O)cc3)sc2CO)cc1 [SR-34774, N,N-diethyl-4-(5-(hydroxymethyl)-2-((4-sulfamoylphenyl)amino)thiazol-4-yl)benzenesulfonamide] | 150
10 | CN(C)S(=O)(=O)c1ccc(-c2nc(Nc3ccc(S(N)(=O)=O)cc3)sc2CO)cc1 [SR-34775, 4-(5-(Hydroxymethyl)-2-((4-sulfamoylphenyl)amino)thiazol-4-yl)-N,N-dimethylbenzenesulfonamide] | 60
11 | CNS(=O)(=O)c1ccc(-c2nc(Nc3ccc(S(N)(=O)=O)cc3)sc2CO)cc1 [SR-34777, 4-(5-(Hydroxymethyl)-2-((4-sulfamoylphenyl)amino)thiazol-4-yl)-N-methylbenzenesulfonamide] | 70
12 | CN(C)S(=O)(=O)c1ccc(-c2csc(Nc3ccc(S(C)(=O)=O)cc3)n2)cc1 [SR-34965, N,N-dimethyl-4-(2-((4-(methylsulfonyl)phenyl)amino)thiazol-4-yl)benzenesulfonamide] | 100
13 | CCN(CC)S(=O)(=O)c1ccc(-c2csc(Nc3ccc(S(C)(=O)=O)cc3)n2)cc1 [SR-34966, N,N-diethyl-4-(2-((4-(methylsulfonyl)phenyl)amino)thiazol-4-yl)benzenesulfonamide] | > 500
14 | CC(C)NS(=O)(=O)c1ccc(-c2csc(Nc3ccc(S(C)(=O)=O)cc3)n2)cc1 [SR-34967, N-isopropyl-4-(2-((4-(methylsulfonyl)phenyl)amino)thiazol-4-yl)benzenesulfonamide] | 500
15 | CNS(=O)(=O)c1ccc(-c2nc(Nc3ccc(S(C)(=O)=O)cc3)sc2CO)cc1 [SR-34968, 4-(5-(Hydroxymethyl)-2-((4-(methylsulfonyl)phenyl)amino)thiazol-4-yl)-N-methylbenzenesulfonamide] | > 500
16 | CN(C)S(=O)(=O)c1ccc(-c2nc(Nc3ccc(S(C)(=O)=O)cc3)sc2CO)cc1 [SR-34969, 4-(5-(Hydroxymethyl)-2-((4-(methylsulfonyl)phenyl)amino)thiazol-4-yl)-N,N-dimethylbenzenesulfonamide] | 350
